Laboratory results: patent US8192962B2, “Processes for detecting toxic substances” (Daikin Industries, Ltd., priority 2001, dated 2012)

Test system: Genes belonging to other category
Experiment: DNA chip mRNA expression in yeast, genes belonging to other category (Table 9)
Assay type: cell-based, Saccharomyces cerevisiae S288C
Method in brief: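 Chemical exposure: 2 h, log-phase S. cerevisiae S288C, YPD, 25° C., dose set to inhibit growth without death. Profiling: mRNA labeled by reverse transcription with Cy3- or Cy5-dUTP, hybridized to whole-genome array. Output: fluorescence ratio against untreated culture.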

## O=[N+]([O-])c1cc[n+]([O-])c2ccccc12 [(5), 4-nitroquinolin-N-oxide]
Yeast gene YHR169W
  The level of expressed mRNA in the presence of chemical substance/The level of expressed mRNA in the absence of chemical substance: 1.1
Yeast gene YHR185C
  The level of expressed mRNA in the presence of chemical substance/The level of expressed mRNA in the absence of chemical substance: 1.4
Yeast gene YHR195W
  The level of expressed mRNA in the presence of chemical substance/The level of expressed mRNA in the absence of chemical substance: 1.5
Yeast gene YIL010W
  The level of expressed mRNA in the presence of chemical substance/The level of expressed mRNA in the absence of chemical substance: 1.2
Yeast gene YIL076W
  The level of expressed mRNA in the presence of chemical substance/The level of expressed mRNA in the absence of chemical substance: 1.8
Yeast gene YIL123W
  The level of expressed mRNA in the presence of chemical substance/The level of expressed mRNA in the absence of chemical substance: 0.6
Yeast gene YIL140W
  The level of expressed mRNA in the presence of chemical substance/The level of expressed mRNA in the absence of chemical substance: 0.8
Yeast gene YJL035C
  The level of expressed mRNA in the presence of chemical substance/The level of expressed mRNA in the absence of chemical substance: 1.4
Yeast gene YJL053W
  The level of expressed mRNA in the presence of chemical substance/The level of expressed mRNA in the absence of chemical substance: 1.1
Yeast gene YJL073W
  The level of expressed mRNA in the presence of chemical substance/The level of expressed mRNA in the absence of chemical substance: 1.2
Yeast gene YJL089W
  The level of expressed mRNA in the presence of chemical substance/The level of expressed mRNA in the absence of chemical substance: 1.1
Yeast gene YJL116C
  The level of expressed mRNA in the presence of chemical substance/The level of expressed mRNA in the absence of chemical substance: 1.3
Yeast gene YJL164C
  The level of expressed mRNA in the presence of chemical substance/The level of expressed mRNA in the absence of chemical substance: 1.1
Yeast gene YJL210W
  The level of expressed mRNA in the presence of chemical substance/The level of expressed mRNA in the absence of chemical substance: 0.6
Yeast gene YJR004C
  The level of expressed mRNA in the presence of chemical substance/The level of expressed mRNA in the absence of chemical substance: 1.1
Yeast gene YJR086W
  The level of expressed mRNA in the presence of chemical substance/The level of expressed mRNA in the absence of chemical substance: 1.3
Yeast gene YJR117W
  The level of expressed mRNA in the presence of chemical substance/The level of expressed mRNA in the absence of chemical substance: 1.2
Yeast gene YKL007W
  The level of expressed mRNA in the presence of chemical substance/The level of expressed mRNA in the absence of chemical substance: 1.0
Yeast gene YKL008C
  The level of expressed mRNA in the presence of chemical substance/The level of expressed mRNA in the absence of chemical substance: 0.9
Yeast gene YKL013C
  The level of expressed mRNA in the presence of chemical substance/The level of expressed mRNA in the absence of chemical substance: 1.9
Yeast gene YKL039W
  The level of expressed mRNA in the presence of chemical substance/The level of expressed mRNA in the absence of chemical substance: 0.7
Yeast gene YKL041W
  The level of expressed mRNA in the presence of chemical substance/The level of expressed mRNA in the absence of chemical substance: 1.3
Yeast gene YKL096W
  The level of expressed mRNA in the presence of chemical substance/The level of expressed mRNA in the absence of chemical substance: 0.6
Yeast gene YKL117W
  The level of expressed mRNA in the presence of chemical substance/The level of expressed mRNA in the absence of chemical substance: 1.8
Yeast gene YKL165C
  The level of expressed mRNA in the presence of chemical substance/The level of expressed mRNA in the absence of chemical substance: 0.9
Yeast gene YKL193C
  The level of expressed mRNA in the presence of chemical substance/The level of expressed mRNA in the absence of chemical substance: 1.1
Yeast gene YKR076W
  The level of expressed mRNA in the presence of chemical substance/The level of expressed mRNA in the absence of chemical substance: 1.0
Yeast gene YLR120C
  The level of expressed mRNA in the presence of chemical substance/The level of expressed mRNA in the absence of chemical substance: 1.1
Yeast gene YLR136C
  The level of expressed mRNA in the presence of chemical substance/The level of expressed mRNA in the absence of chemical substance: 1.6
Yeast gene YLR178C
  The level of expressed mRNA in the presence of chemical substance/The level of expressed mRNA in the absence of chemical substance: 1.0
Yeast gene YLR250W
  The level of expressed mRNA in the presence of chemical substance/The level of expressed mRNA in the absence of chemical substance: 1.4
Yeast gene YLR327C
  The level of expressed mRNA in the presence of chemical substance/The level of expressed mRNA in the absence of chemical substance: 1.3
Yeast gene YLR356W
  The level of expressed mRNA in the presence of chemical substance/The level of expressed mRNA in the absence of chemical substance: 1.1
Yeast gene YLR362W
  The level of expressed mRNA in the presence of chemical substance/The level of expressed mRNA in the absence of chemical substance: 1.5
Yeast gene YLR391W
  The level of expressed mRNA in the presence of chemical substance/The level of expressed mRNA in the absence of chemical substance: 1.2
Yeast gene YLR429W
  The level of expressed mRNA in the presence of chemical substance/The level of expressed mRNA in the absence of chemical substance: 1.4
Yeast gene YMR004W
  The level of expressed mRNA in the presence of chemical substance/The level of expressed mRNA in the absence of chemical substance: 1.0
Yeast gene YMR094W
  The level of expressed mRNA in the presence of chemical substance/The level of expressed mRNA in the absence of chemical substance: 0.9
Yeast gene YMR104C
  The level of expressed mRNA in the presence of chemical substance/The level of expressed mRNA in the absence of chemical substance: 0.7
Yeast gene YMR219W
  The level of expressed mRNA in the presence of chemical substance/The level of expressed mRNA in the absence of chemical substance: 1.6
Yeast gene YMR226C
  The level of expressed mRNA in the presence of chemical substance/The level of expressed mRNA in the absence of chemical substance: 0.9
Yeast gene YMR238W
  The level of expressed mRNA in the presence of chemical substance/The level of expressed mRNA in the absence of chemical substance: 1.5
Yeast gene YMR275C
  The level of expressed mRNA in the presence of chemical substance/The level of expressed mRNA in the absence of chemical substance: 0.7
Yeast gene YMR276W
  The level of expressed mRNA in the presence of chemical substance/The level of expressed mRNA in the absence of chemical substance: 1.3
Yeast gene YMR297W
  The level of expressed mRNA in the presence of chemical substance/The level of expressed mRNA in the absence of chemical substance: 0.6
Yeast gene YNL006W
  The level of expressed mRNA in the presence of chemical substance/The level of expressed mRNA in the absence of chemical substance: 0.9
Yeast gene YNL007C
  The level of expressed mRNA in the presence of chemical substance/The level of expressed mRNA in the absence of chemical substance: 1.2
Yeast gene YNL093W
  The level of expressed mRNA in the presence of chemical substance/The level of expressed mRNA in the absence of chemical substance: 1.2
Yeast gene YNL333W
  The level of expressed mRNA in the presence of chemical substance/The level of expressed mRNA in the absence of chemical substance: 1.5
Yeast gene YNR010W
  The level of expressed mRNA in the presence of chemical substance/The level of expressed mRNA in the absence of chemical substance: 1.8
Yeast gene YNR069C
  The level of expressed mRNA in the presence of chemical substance/The level of expressed mRNA in the absence of chemical substance: 1.4
Yeast gene YOL013C
  The level of expressed mRNA in the presence of chemical substance/The level of expressed mRNA in the absence of chemical substance: 0.7
Yeast gene YOL109W
  The level of expressed mRNA in the presence of chemical substance/The level of expressed mRNA in the absence of chemical substance: 1.0
Yeast gene YOL164W
  The level of expressed mRNA in the presence of chemical substance/The level of expressed mRNA in the absence of chemical substance: 1.6
Yeast gene YOR036W
  The level of expressed mRNA in the presence of chemical substance/The level of expressed mRNA in the absence of chemical substance: 1.1
Yeast gene YOR117W
  The level of expressed mRNA in the presence of chemical substance/The level of expressed mRNA in the absence of chemical substance: 1.2
Yeast gene YOR124C
  The level of expressed mRNA in the presence of chemical substance/The level of expressed mRNA in the absence of chemical substance: 1.1
Yeast gene YOR132W
  The level of expressed mRNA in the presence of chemical substance/The level of expressed mRNA in the absence of chemical substance: 1.1
Yeast gene YOR157C
  The level of expressed mRNA in the presence of chemical substance/The level of expressed mRNA in the absence of chemical substance: 0.7
Yeast gene YOR181W
  The level of expressed mRNA in the presence of chemical substance/The level of expressed mRNA in the absence of chemical substance: 0.7
Yeast gene YOR185C
  The level of expressed mRNA in the presence of chemical substance/The level of expressed mRNA in the absence of chemical substance: 1.2
Yeast gene YOR198C
  The level of expressed mRNA in the presence of chemical substance/The level of expressed mRNA in the absence of chemical substance: 0.8
Yeast gene YOR259C
  The level of expressed mRNA in the presence of chemical substance/The level of expressed mRNA in the absence of chemical substance: 2.0
Yeast gene YOR261C
  The level of expressed mRNA in the presence of chemical substance/The level of expressed mRNA in the absence of chemical substance: 1.5
Yeast gene YOR288C
  The level of expressed mRNA in the presence of chemical substance/The level of expressed mRNA in the absence of chemical substance: 1.1
Yeast gene YOR327C
  The level of expressed mRNA in the presence of chemical substance/The level of expressed mRNA in the absence of chemical substance: 1.0
Yeast gene YOR355W
  The level of expressed mRNA in the presence of chemical substance/The level of expressed mRNA in the absence of chemical substance: 1.0
Yeast gene YOR383C
  The level of expressed mRNA in the presence of chemical substance/The level of expressed mRNA in the absence of chemical substance: 0.9
Yeast gene YPL010W
  The level of expressed mRNA in the presence of chemical substance/The level of expressed mRNA in the absence of chemical substance: 1.4
Yeast gene YPL089C
  The level of expressed mRNA in the presence of chemical substance/The level of expressed mRNA in the absence of chemical substance: 1.4
Yeast gene YPL109C
  The level of expressed mRNA in the presence of chemical substance/The level of expressed mRNA in the absence of chemical substance: 1.2
Yeast gene YPL149W
  The level of expressed mRNA in the presence of chemical substance/The level of expressed mRNA in the absence of chemical substance: 0.8
Yeast gene YPL154C
  The level of expressed mRNA in the presence of chemical substance/The level of expressed mRNA in the absence of chemical substance: 1.2
Yeast gene YPR080W
  The level of expressed mRNA in the presence of chemical substance/The level of expressed mRNA in the absence of chemical substance: 1.4
Yeast gene YPR103W
  The level of expressed mRNA in the presence of chemical substance/The level of expressed mRNA in the absence of chemical substance: 1.7
Yeast gene YPR108W
  The level of expressed mRNA in the presence of chemical substance/The level of expressed mRNA in the absence of chemical substance: 1.3
